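Compound exposure: 48 hours, 5 concentrations, 96-well plates. TGI denotes the concentration required for complete inhibition of growth.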
What was measured:
Experiment in all cases: NCI-60 cell line screen, 48 h
CAKI-1 renal = system: CAKI-1 renal
DLD-1 colon = system: DLD-1 colon
KM20L2 colon = system: KM20L2 colon
M19-MEL melanoma = system: M19-MEL melanoma
OVCAR-8 ovarian = system: OVCAR-8 ovarian
HOP-18 NSCLC = system: HOP-18 NSCLC
LOX IMVI melanoma = system: LOX IMVI melanoma
LXFL 529 NSCLC = system: LXFL 529 NSCLC
SF-268 CNS = system: SF-268 CNS
DMS 114 small cell lung = system: DMS 114 small cell lung

O=C1/C(=C/c2ccc(Cl)cc2)CCC1CCN1CCOCC1 (configuration not stated)
TGI (CAKI-1 renal): > 100 µM
TGI (DLD-1 colon): > 100 µM
TGI (KM20L2 colon): > 100 µM
TGI (M19-MEL melanoma): > 100 µM
TGI (OVCAR-8 ovarian): > 100 µM
TGI (HOP-18 NSCLC): > 100 µM
TGI (LOX IMVI melanoma): > 100 µM
TGI (LXFL 529 NSCLC): > 100 µM
TGI (SF-268 CNS): > 100 µM
TGI (DMS 114 small cell lung): > 100 µM

CC(=O)Oc1c2c(c(O)c3ccccc13)C(n1cnc3c(ncn3C3OC(CO)C4OC(C)(C)OC43)c1=N)CCC2 (configuration not stated)
TGI (CAKI-1 renal): 50.1 µM
TGI (DLD-1 colon): 27.4 µM
TGI (KM20L2 colon): 53.5 µM
TGI (M19-MEL melanoma): 23.8 µM
TGI (OVCAR-8 ovarian): 23.9 µM
TGI (HOP-18 NSCLC): 34.6 µM
TGI (LOX IMVI melanoma): 21 µM
TGI (SF-268 CNS): 30.7 µM
TGI (DMS 114 small cell lung): 21.7 µM

CCOc1ccc(NC(=O)C(=O)CC(=O)c2c(C)n([O-])c3ccccc3[n+]2=O)cc1
TGI (CAKI-1 renal): > 100 µM
TGI (KM20L2 colon): > 100 µM
TGI (M19-MEL melanoma): > 100 µM
TGI (OVCAR-8 ovarian): > 100 µM
TGI (HOP-18 NSCLC): > 100 µM
TGI (LOX IMVI melanoma): > 100 µM
TGI (LXFL 529 NSCLC): > 100 µM
TGI (SF-268 CNS): > 100 µM
TGI (DMS 114 small cell lung): > 100 µM

O=c1ccn([C@H]2CSC[C@@H](CO)C2)c(=O)[nH]1
TGI (CAKI-1 renal): > 100 µM
TGI (DLD-1 colon): > 100 µM
TGI (KM20L2 colon): > 100 µM
TGI (M19-MEL melanoma): > 100 µM
TGI (OVCAR-8 ovarian): > 100 µM
TGI (HOP-18 NSCLC): > 100 µM
TGI (LOX IMVI melanoma): > 100 µM
TGI (LXFL 529 NSCLC): > 100 µM
TGI (SF-268 CNS): > 100 µM
TGI (DMS 114 small cell lung): > 100 µM

OCC1OC(c2nc(C3=NCCCN3)cs2)C(O)C1O (configuration not stated)
TGI (CAKI-1 renal): > 100 µM
TGI (DLD-1 colon): > 100 µM
TGI (KM20L2 colon): > 100 µM
TGI (M19-MEL melanoma): > 100 µM
TGI (OVCAR-8 ovarian): > 100 µM
TGI (HOP-18 NSCLC): > 100 µM
TGI (LOX IMVI melanoma): > 100 µM
TGI (LXFL 529 NSCLC): > 100 µM
TGI (SF-268 CNS): > 100 µM
TGI (DMS 114 small cell lung): > 100 µM

Cc1[nH]c2ccccc2c1C(=O)/C=C/c1ccccc1O
TGI (CAKI-1 renal): > 100 µM
TGI (DLD-1 colon): > 100 µM
TGI (KM20L2 colon): > 100 µM
TGI (M19-MEL melanoma): > 100 µM
TGI (OVCAR-8 ovarian): > 100 µM
TGI (HOP-18 NSCLC): > 100 µM
TGI (LOX IMVI melanoma): > 100 µM
TGI (LXFL 529 NSCLC): > 100 µM
TGI (SF-268 CNS): > 100 µM

COC1(OC)C(N(C)C)=C(Cl)C(=O)/C1=C/C=O
TGI (CAKI-1 renal): > 100 µM
TGI (DLD-1 colon): > 100 µM
TGI (KM20L2 colon): > 100 µM
TGI (M19-MEL melanoma): > 100 µM
TGI (OVCAR-8 ovarian): > 100 µM
TGI (HOP-18 NSCLC): > 100 µM
TGI (LOX IMVI melanoma): > 100 µM
TGI (LXFL 529 NSCLC): > 100 µM
TGI (SF-268 CNS): > 100 µM
TGI (DMS 114 small cell lung): > 100 µM

O=C(Nc1nc(=S)c2c(ncn2CCOC(=O)c2ccccc2)[nH]1)c1ccccc1
TGI (CAKI-1 renal): > 100 µM
TGI (DLD-1 colon): > 100 µM
TGI (KM20L2 colon): > 100 µM
TGI (M19-MEL melanoma): > 100 µM
TGI (OVCAR-8 ovarian): > 100 µM
TGI (HOP-18 NSCLC): > 100 µM
TGI (LOX IMVI melanoma): > 100 µM
TGI (LXFL 529 NSCLC): > 100 µM
TGI (SF-268 CNS): 39.3 µM
TGI (DMS 114 small cell lung): > 100 µM

COc1ccc(CC2NCCc3c2[nH]c2ccccc32)cc1 (configuration not stated)
TGI (DLD-1 colon): > 100 µM
TGI (KM20L2 colon): > 100 µM
TGI (M19-MEL melanoma): > 100 µM
TGI (OVCAR-8 ovarian): > 100 µM
TGI (LOX IMVI melanoma): > 100 µM
TGI (LXFL 529 NSCLC): > 100 µM
TGI (SF-268 CNS): > 100 µM
TGI (DMS 114 small cell lung): > 100 µM

CC1c2c(Cl)nc3ccccc3c2Oc2c1c(Cl)nc1ccccc21
TGI (DLD-1 colon): > 100 µM
TGI (KM20L2 colon): > 100 µM
TGI (M19-MEL melanoma): > 100 µM
TGI (OVCAR-8 ovarian): > 100 µM
TGI (HOP-18 NSCLC): > 100 µM
TGI (LOX IMVI melanoma): > 100 µM
TGI (LXFL 529 NSCLC): > 100 µM
TGI (SF-268 CNS): > 100 µM
TGI (DMS 114 small cell lung): > 100 µM

N#CC(C(=O)C(=O)C(C#N)c1ccc(Br)cc1)c1ccc(Br)cc1 (configuration not stated)
TGI (CAKI-1 renal): 37.1 µM
TGI (DLD-1 colon): 34.5 µM
TGI (KM20L2 colon): 27.7 µM
TGI (M19-MEL melanoma): 25.8 µM
TGI (HOP-18 NSCLC): 25.9 µM
TGI (LOX IMVI melanoma): 23.6 µM
TGI (SF-268 CNS): 32.4 µM
TGI (DMS 114 small cell lung): 26.5 µM

— PubChem BioAssay (NCI)
